In patent publication US20130034613A1, “FORMULATIONS OF PHOSPHITES” (Ceradis B.V., priority 2009, published 2013):

Tests used:
Type in all cases: in vivo
rose = assay: Phytotoxicity towards rose after spraying (Example 2); conditions: summary of Table 3
Description: The experimental design is a randomized block design with a plot size of 3 plants per plot. The experiment has 4 replications. Plants are sprayed with solution until run-off occurs. The composition and the dose rate of the different treatments are the same as in example 1, except that calcium lignosulfonate was replaced by sodium lignosulfonate (Borresperse NA®, Borregaard LignoTech Ltd, Germany).
Phytotoxicity is observed one week after spraying. Per plant, the percentage leaf area dead or showing phytotoxicity symptoms is estimated.

[1] = tested on: grapevine cultivar Merlot; assay: Phytotoxicity towards grapevine after spraying; conditions: summary of Table 4
Description: The experimental design is a randomized block design with a plot size of 3 plants per plot. The experiment has 4 replications. Plants are sprayed with solution until run-off occurs. The composition and the dose rate of the different treatments are the same as in example 1.
Phytotoxicity is observed one week after spraying. Per plant, the percentage leaf area dead or showing phytotoxicity symptoms was estimated.

[2] = tested on: garden cress (Lepidium sativum) seedlings; assay: Phytotoxicity towards garden cress seedlings after spraying; conditions: summary of Table 2
Procedure: Two compositions of potassium phosphite are prepared, one with and one without calcium lignosulfonate (Borresperse CA®, Borregaard LignoTech Ltd, Germany). The formulation and the concentration in the spray solution are calculated in such a way that the dosage of phosphite is the same for both compositions (120 mM=14.4 g potassium phosphite/1 spray solution). A control is added in which the adjuvants alone (without lignosulfonate or phosphite) are tested.
Various adjuvants are added to the two compositions: alcohol ethoxylate (commercial product: Genapol EP 2584, Clariant, Germany), di-octyl sulfosuccinate (commercial product Emulsogen SF8, Clariant, Germany), quaternary ammonium surfactant (commercial product Geronol CF/PN-20N, Rhodia, France) and ethoxylated tallow amine (commercial product Ethomeen S25, Akzo Nobel, The Netherlands). All adjuvant products arc added at a concentration of 5 g/l spray solution. For both compositions, a control is added without adjuvant.
Garden cress seedlings are grown in plastic boxes (100 seeds/box) on mineral sand. Boxes were kept at 22° C. One week old seedlings are sprayed with the various spray solutions until run-off of the solutions occurs. Phytotoxicity is observed three days after spraying. The percentage of seedlings dead or showing phytotoxicity symptoms is estimated. […]

Measured: phytotoxicity (in words)

potassium phosphite
phytotoxic: all assays above
